Reference: patent US10221177B2 (HYDRA BIOSCIENCES, INC., priority 2014, dated 2019)

biological target: human TRPA1 (Homo sapiens (Human), UniProt O75762); experiment: In vitro inhibition of human TRPA1, whole cell patch configuration; assay type: cell-based; conditions: current activation 10 μM AITC, tested concentrations 320 pM to 3.2 μM, read-out: hTRPA1 IC50
Summary of the method: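 Whole-cell patch clamp, bath 150 mM NaCl, 10 mM HEPES, 1 mM EGTA, 3 mM MgCl2, pH 7.4 (sometimes 2 mM CaCl2, 1 mM MgCl2). Currents recorded continuously at −60 mV or by 400 ms ramps from −40 mV holding every 4 s; inward/outward currents taken at −80/80 mV, with controlled-temperature focal perfusion.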

Chain of human TRPA1 (O75762 whole entry, the tested form may be a part): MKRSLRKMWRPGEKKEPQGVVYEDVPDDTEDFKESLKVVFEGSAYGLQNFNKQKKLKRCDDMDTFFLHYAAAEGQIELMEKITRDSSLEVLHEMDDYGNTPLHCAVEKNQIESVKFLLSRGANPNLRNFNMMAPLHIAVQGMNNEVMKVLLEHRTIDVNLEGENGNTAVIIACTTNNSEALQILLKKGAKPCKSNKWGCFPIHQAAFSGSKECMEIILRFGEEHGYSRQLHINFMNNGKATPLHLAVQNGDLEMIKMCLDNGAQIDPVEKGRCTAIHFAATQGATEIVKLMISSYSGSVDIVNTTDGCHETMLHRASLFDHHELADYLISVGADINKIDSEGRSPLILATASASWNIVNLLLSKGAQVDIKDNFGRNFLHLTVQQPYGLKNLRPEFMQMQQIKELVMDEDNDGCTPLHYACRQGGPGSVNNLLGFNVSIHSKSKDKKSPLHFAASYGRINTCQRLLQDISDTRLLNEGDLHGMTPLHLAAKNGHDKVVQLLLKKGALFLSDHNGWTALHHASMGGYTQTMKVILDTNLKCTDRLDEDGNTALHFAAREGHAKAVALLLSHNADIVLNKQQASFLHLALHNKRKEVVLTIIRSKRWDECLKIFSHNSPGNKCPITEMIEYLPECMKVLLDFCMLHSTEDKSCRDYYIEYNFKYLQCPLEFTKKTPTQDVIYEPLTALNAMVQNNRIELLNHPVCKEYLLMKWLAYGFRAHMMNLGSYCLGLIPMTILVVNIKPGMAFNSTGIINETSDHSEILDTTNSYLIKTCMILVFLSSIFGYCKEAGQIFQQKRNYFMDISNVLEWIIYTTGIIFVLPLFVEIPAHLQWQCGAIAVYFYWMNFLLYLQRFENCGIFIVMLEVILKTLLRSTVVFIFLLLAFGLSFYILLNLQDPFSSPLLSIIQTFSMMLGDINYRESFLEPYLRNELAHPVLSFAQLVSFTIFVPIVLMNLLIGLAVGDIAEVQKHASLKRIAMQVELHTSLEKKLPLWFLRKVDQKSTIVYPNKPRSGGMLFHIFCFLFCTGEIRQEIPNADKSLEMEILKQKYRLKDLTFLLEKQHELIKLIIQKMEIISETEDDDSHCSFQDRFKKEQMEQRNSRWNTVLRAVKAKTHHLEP

IC50 [nM]	SMILES
3	Cc1cc(Cn2c(=O)c3c(ncn3[C@@H](C)C(=O)Nc3csc(-c4cnc(C(F)(F)F)c(C)c4)n3)n(C)c2=O)no1 [Compound 94, (S)-2-(3-methyl-1-((5-methylisoxazol-3-yl)methyl)-2,6-dioxo-2,3-dihydro-1H-purin-7(6H)-yl)-N-(2-(5-methyl-6-(trifluoromethyl)pyridin-3-yl)thiazol-4-yl)propanamide]
9	C[C@@H](C(=O)Nc1cccc(-c2ccc(C(F)(F)F)nc2)n1)n1cnc2c1c(=O)n(Cc1ccon1)c(=O)n2C [Compound 95, (S)-2-(1-(isoxazol-3-ylmethyl)-3-methyl-2,6-dioxo-2,3-dihydro-1H-purin-7(6H)-yl)-N-(6′-(trifluoromethyl)-[2,3′-bipyridin]-6-yl)propanamide]
2	Cc1cc(Cn2c(=O)c3c(ncn3[C@@H](C)C(=O)Nc3cncc(-c4cnc(N5CCC[C@H]5C(F)(F)F)nc4)n3)n(C)c2=O)no1 [Compound 96, (S)-2-(3-methyl-1-((5-methylisoxazol-3-yl)methyl)-2,6-dioxo-2,3-dihydro-1H-purin-7(6H)-yl)-N-(6-(2-((S)-2-(trifluoromethyl)pyrrolidin-1-yl)pyrimidin-5-yl)pyrazin-2-yl)propanamide]
3	CC(=O)Cn1c(=O)c2c(ncn2[C@@H](C)C(=O)Nc2csc(-c3cnc(C)c(C(F)(F)F)c3)n2)n(C)c1=O [Compound 98, (S)-2-(3-methyl-2,6-dioxo-1-(2-oxopropyl)-2,3-dihydro-1H-purin-7(6H)-yl)-N-(2-(6-methyl-5-(trifluoromethyl)pyridin-3-yl)thiazol-4-yl)propanamide]
1	CCC(=O)Cn1c(=O)c2c(ncn2[C@@H](C)C(=O)Nc2csc(-c3cnc(C)c(C(F)(F)F)c3)n2)n(C)c1=O [Compound 99, (S)-2-(3-methyl-2,6-dioxo-1-(2-oxobutyl)-2,3-dihydro-1H-purin-7(6H)-yl)-N-(2-(6-methyl-5-(trifluoromethyl)pyridin-3-yl)thiazol-4-yl)propanamide]
8	Cc1cc(Cn2c(=O)c3c(ncn3[C@@H](C)C(=O)Nc3csc(-c4cnc(C)c(F)c4)n3)n(C)c2=O)no1 [Compound 100, (S)—N-(2-(5-fluoro-6-methylpyridin-3-yl)thiazol-4-yl)-2-(3-methyl-1-((5-methylisoxazol-3-yl)methyl)-2,6-dioxo-2,3-dihydro-1H-purin-7(6H)-yl)propanamide]
12	CCC(=O)Cn1c(=O)c2c(ncn2[C@@H](C)C(=O)Nc2csc(-c3cnc(C)c(F)c3)n2)n(C)c1=O [Compound 101, (S)—N-(2-(5-fluoro-6-methylpyridin-3-yl)thiazol-4-yl)-2-(3-methyl-2,6-dioxo-1-(2-oxobutyl)-2,3-dihydro-1H-purin-7(6H)-yl)propanamide]
1	Cc1noc(Cn2c(=O)c3c(ncn3[C@@H](C)C(=O)Nc3csc(-c4cnc(C(F)(F)F)c(C)c4)n3)n(C)c2=O)n1 [Compound 107, (S)-2-(3-methyl-1-((3-methyl-1,2,4-oxadiazol-5-yl)methyl)-2,6-dioxo-2,3-dihydro-1H-purin-7(6H)-yl)-N-(2-(5-methyl-6-(trifluoromethyl)pyridin-3-yl)thiazol-4-yl)propanamide]
1	Cc1noc(Cn2c(=O)c3c(ncn3[C@@H](C)C(=O)Nc3csc(-c4cnc(C)c(C(F)(F)F)c4)n3)n(C)c2=O)n1 [Compound 108, (S)-2-(3-methyl-1-((3-methyl-1,2,4-oxadiazol-5-yl)methyl)-2,6-dioxo-2,3-dihydro-1H-purin-7(6H)-yl)-N-(2-(6-methyl-5-(trifluoromethyl)pyridin-3-yl)thiazol-4-yl)propanamide]
8	CC(=O)Cn1c(=O)c2c(ncn2[C@@H](C)C(=O)Nc2cncc(-c3cnc(C)c(C(F)(F)F)c3)n2)n(C)c1=O [Compound 109, (S)-2-(3-methyl-2,6-dioxo-1-(2-oxopropyl)-2,3-dihydro-1H-purin-7(6H)-yl)-N-(6-(6-methyl-5-(trifluoromethyl)pyridin-3-yl)pyrazin-2-yl)propanamide]
1	Cc1cc(Cn2c(=O)c3c(ncn3[C@@H](C)C(=O)Nc3ccnc(-c4cnc(C)c(C(F)(F)F)c4)n3)n(C)c2=O)no1 [Compound 110, (S)-2-(3-methyl-1-((5-methylisoxazol-3-yl)methyl)-2,6-dioxo-2,3-dihydro-1H-purin-7(6H)-yl)-N-(2-(6-methyl-5-(trifluoromethyl)pyridin-3-yl)pyrimidin-4-yl)propanamide]
3	CC(=O)Cn1c(=O)c2c(ncn2[C@@H](C)C(=O)Nc2ccnc(-c3cnc(C)c(C(F)(F)F)c3)n2)n(C)c1=O [Compound 111]
1	Cc1cc(Cn2c(=O)c3c(ncn3[C@@H](C)C(=O)Nc3csc(-c4cnc(C)c(C(F)(F)F)c4)n3)n(C)c2=O)no1 [Compound 112, (S)-2-(3-methyl-1-((5-methylisoxazol-3-yl)methyl)-2,6-dioxo-2,3-dihydro-1H-purin-7(6H)-yl)-N-(2-(6-methyl-5-(trifluoromethyl)pyridin-3-yl)thiazol-4-yl)propanamide]
2	CCC(=O)Cn1c(=O)c2c(ncn2[C@@H](C)C(=O)Nc2cccc(-c3cnc(N4CC5CC5C4)cn3)n2)n(C)c1=O (stereo partly drawn) [Compound 113, (2S)—N-(6-(5-(3-azabicyclo[3.1.0]hexan-3-yl)pyrazin-2-yl)pyridin-2-yl)-2-(3-methyl-2,6-dioxo-1-(2-oxobutyl)-2,3-dihydro-1H-purin-7(6H)-yl)propanamide]
2	Cc1cc(Cn2c(=O)c3c(ncn3[C@@H](C)C(=O)Nc3ccnc(-c4cnc(N5CCC[C@H]5C(F)(F)F)nc4)n3)n(C)c2=O)no1 [Compound 114, (S)-2-(3-methyl-1-((5-methylisoxazol-3-yl)methyl)-2,6-dioxo-2,3-dihydro-1H-purin-7(6H)-yl)-N-(2′-((S)-2-(trifluoromethyl)pyrrolidin-1-yl)-[2,5′-bipyrimidin]-4-yl)propanamide]
1	Cc1cc(Cn2c(=O)c3c(ncn3[C@@H](C)C(=O)Nc3cccc(-c4cnc(N5CCC[C@H]5C(F)(F)F)nc4)n3)n(C)c2=O)no1 [Compound 115, (S)-2-(3-methyl-1-((5-methylisoxazol-3-yl)methyl)-2,6-dioxo-2,3-dihydro-1H-purin-7(6H)-yl)-N-(6-(2-((S)-2-(trifluoromethyl)pyrrolidin-1-yl)pyrimidin-5-yl)pyridin-2-yl)propanamide]
> 3200	CCC(=O)Cn1c(=O)c2c(ncn2[C@@H](C)C(=O)Nc2cccc(-c3ccc(C(F)(F)F)nc3)n2)n(C)c1=O [Compound 116, (S)-2-(3-methyl-2,6-dioxo-1-(2-oxobutyl)-2,3-dihydro-1H-purin-7(6H)-yl)-N-(6′-(trifluoromethyl)-[2,3′-bipyridin]-6-yl)propanamide]
18	C[C@@H](C(=O)Nc1cccc(-c2cnc(C(F)(F)F)nc2)n1)n1cnc2c1c(=O)n(Cc1ccon1)c(=O)n2C [Compound 117, (S)-2-(1-(isoxazol-3-ylmethyl)-3-methyl-2,6-dioxo-2,3-dihydro-1H-purin-7(6H)-yl)-N-(6-(2-(trifluoromethyl)pyrimidin-5-yl)pyridin-2-yl)propanamide]
17	Cc1cc(Cn2c(=O)c3c(ncn3[C@@H](C)C(=O)Nc3cncc(-c4ccc(C(F)(F)F)nc4)n3)n(C)c2=O)no1 [Compound 118, (S)-2-(3-methyl-1-((5-methylisoxazol-3-yl)methyl)-2,6-dioxo-2,3-dihydro-1H-purin-7(6H)-yl)-N-(6-(6-(trifluoromethyl)pyridin-3-yl)pyrazin-2-yl)propanamide]
28	C[C@@H](C(=O)Nc1cncc(-c2ccc(C(F)(F)F)nc2)n1)n1cnc2c1c(=O)n(Cc1ccon1)c(=O)n2C [Compound 119, (S)-2-(1-(isoxazol-3-ylmethyl)-3-methyl-2,6-dioxo-2,3-dihydro-1H-purin-7(6H)-yl)-N-(6-(6-(trifluoromethyl)pyridin-3-yl)pyrazin-2-yl)propanamide]
26	C[C@@H](C(=O)Nc1cncc(-c2cnc(C(F)(F)F)nc2)n1)n1cnc2c1c(=O)n(Cc1ccon1)c(=O)n2C [Compound 120, (S)-2-(1-(isoxazol-3-ylmethyl)-3-methyl-2,6-dioxo-2,3-dihydro-1H-purin-7(6H)-yl)-N-(6-(2-(trifluoromethyl)pyrimidin-5-yl)pyrazin-2-yl)propanamide]
1	COc1ncc(-c2cccc(NC(=O)[C@H](C)n3cnc4c3c(=O)n(Cc3cc(C)on3)c(=O)n4C)n2)cc1C(F)(F)F [Compound 121, (S)—N-(6′-methoxy-5′-(trifluoromethyl)-[2,3′-bipyridin]-6-yl)-2-(3-methyl-1-((5-methylisoxazol-3-yl)methyl)-2,6-dioxo-2,3-dihydro-1H-purin-7(6H)-yl)propanamide]
1	CCOc1ncc(-c2cccc(NC(=O)[C@H](C)n3cnc4c3c(=O)n(Cc3cc(C)on3)c(=O)n4C)n2)cc1C(F)(F)F [Compound 122, (S)—N-(6′-ethoxy-5′-(trifluoromethyl)-[2,3′-bipyridin]-6-yl)-2-(3-methyl-1-((5-methylisoxazol-3-yl)methyl)-2,6-dioxo-2,3-dihydro-1H-purin-7(6H)-yl)propanamide]
2	Cc1cc(Cn2c(=O)c3c(ncn3[C@@H](C)C(=O)Nc3cccc(-c4cnc(Cl)c(C(F)(F)F)c4)n3)n(C)c2=O)no1 [Compound 123, (S)—N-(6′-chloro-5′-(trifluoromethyl)-[2,3′-bipyridin]-6-yl)-2-(3-methyl-1-((5-methylisoxazol-3-yl)methyl)-2,6-dioxo-2,3-dihydro-1H-purin-7(6H)-yl)propanamide]
1	CCC(=O)Cn1c(=O)c2c(ncn2[C@@H](C)C(=O)Nc2cccc(-c3cnc(OC)c(C(F)(F)F)c3)n2)n(C)c1=O [Compound 124, (S)—N-(6′-methoxy-5′-(trifluoromethyl)-[2,3′-bipyridin]-6-yl)-2-(3-methyl-2,6-dioxo-1-(2-oxobutyl)-2,3-dihydro-1H-purin-7(6H)-yl)propanamide]
